Experimental data reported in patent publication US20170369492A1 (Takeda Pharmaceutical Company Limited, priority 2014, published 2017).

Molecular target: T1, human GPR43 (Homo sapiens, UniProt O15552)
T1 construct: expressed in transfected cells
T1 sequence (O15552 1-330): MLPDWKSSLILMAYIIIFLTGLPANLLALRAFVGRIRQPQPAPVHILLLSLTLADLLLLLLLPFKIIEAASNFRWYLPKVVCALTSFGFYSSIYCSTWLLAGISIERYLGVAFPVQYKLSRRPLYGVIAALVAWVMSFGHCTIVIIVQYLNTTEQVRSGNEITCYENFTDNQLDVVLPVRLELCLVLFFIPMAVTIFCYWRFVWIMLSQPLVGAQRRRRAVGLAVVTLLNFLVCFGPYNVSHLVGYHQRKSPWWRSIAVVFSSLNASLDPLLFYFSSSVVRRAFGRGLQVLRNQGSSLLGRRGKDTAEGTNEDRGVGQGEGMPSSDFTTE
Test: Ca-Flux Functional Assay: Determination of Agonist/Positive Allosteric Modulator (PAM) Activity
Format: cell-based
Settings: CHO-K1 Gα16 cells stably expressing human GPR43; compound added in the presence of EC20 sodium acetate; intracellular Ca2+ by FLIPR; agonist/PAM activity not distinguished
Outline: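 FLIPR calcium read in CHO-K1 Gα16 cells stably expressing human GPR43, loaded with Calcium 5 dye in HBSS/HEPES/probenecid/BSA for 1 h at 37 °C. Compounds were tested in 10-point half-log series from 10 μM, co-added with sodium acetate at its EC20. EC50 taken from duplicate-well curves, capturing agonist or PAM activity without distinction.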

Going from `Nc1c(S(=O)(=O)c2ccccc2)c2ncccc2n1C1CCCCC1` [Example 9, 3-(benzenesulfonyl)-1-cyclohexyl-1H-[3,2-b]pyridin-2-amine] to `Nc1c(S(=O)(=O)c2ccccc2)c2ccncc2n1C1CCCCC1` [Example 20, 3-(benzenesulfonyl)-1-cyclohexyl-1H-pyrrolo[2,3-]pyridin-2-amine], the EC50 rises from 1250 nM to 2360 nM (1.9-fold).

First: Nc1c(S(=O)(=O)NCCc2ccccc2)c2nccnc2n1C1CCCCC1 [Example 84, 6-amino-5-cyclohexyl-N-(2-phenylethyl)-5H-pyrrolo[2,3-b]pyrazine-7-sulfonamide]
Second: Nc1c(S(=O)(=O)c2ccccc2F)c2nccnc2n1C1CCCCC1 [Example 111, 5-cyclohexyl-7-[(2-fluorobenzene)sulfonyl]-5H-pyrrolo[2,3-b]pyrazin-6-amine]
The EC50 of the first is 16-fold higher: 3290 nM for the first, 209 nM for the second.

Going from `Nc1c(S(=O)(=O)N2CCCOCC2)c2nccnc2n1C1CCCCC1` [Example 72, 5-cyclohexyl-7-(1,4-oxazepane-4-sulfonyl)-5H-pyrrolo[2,3-b]pyrazin-6-amine] to `Nc1c(S(=O)(=O)N2CC(N3CCCCC3)C2)c2nccnc2n1C1CCCCC1` [Example 100, 5-cyclohexyl-7-[3-(piperidin-1-yl)azetidine-1-sulfonyl]-5H-pyrrolo[2,3-b]pyrazin-6-amine], the EC50 rises from 1800 nM to 3930 nM (2.2-fold).

First: Nc1c(S(=O)(=O)N2CCC(Cc3ccccc3)CC2)c2nccnc2n1C1CCCCC1 [Example 81, 7-(4-benzylpiperidine-1-sulfonyl)-5-cyclohexyl-5H-pyrrolo[2,3-b]pyrazin-6-amine]
Second: CC(C)Oc1ccc(S(=O)(=O)c2c(N)n(C3CCCCC3)c3nccnc23)cc1 [Example 7, 5-cyclohexyl-7-{[4-(propan-2-yloxy)benzene]sulfonyl}-5H-pyrrolo[2,3-b]pyrazin-6-amine]
The EC50 of the first is 7.3-fold higher: 1250 nM for the first, 172 nM for the second. The second is the more potent here.

In the case of `Nc1c(S(=O)(=O)c2ccccc2)c2nccnc2n1CCc1ccccc1` [Example 46, 5-phenethyl-7-(phenylsulfonyl)-5H-pyrrolo[2,3-b]pyrazin-6-amine], the EC50 is reported as 5260 nM.
